In patent publication US20140179681A1, “METHODS AND COMPOSITIONS OF TARGETED DRUG DEVELOPMENT” (priority 2010, published 2014):
“Also recorded” adds a separate entry of the source.

Columns and labels:
EGFR = molecular target: T1, EGFR (Homo sapiens, UniProt P00533); assay: Titration of known EGFR inhibitors in absence or presence of a fixed concentration of AD4 compound (% inhibition of EGFR); assay type: cell-based; conditions: Tykerb alone or in combination with the compound; result in words
T1 construct: A431 cells (ATCC # CRL-1555) were grown in Dulbecco's Modified Eagle Medium; host or cells: A431
T1 sequence (P00533 25-1210): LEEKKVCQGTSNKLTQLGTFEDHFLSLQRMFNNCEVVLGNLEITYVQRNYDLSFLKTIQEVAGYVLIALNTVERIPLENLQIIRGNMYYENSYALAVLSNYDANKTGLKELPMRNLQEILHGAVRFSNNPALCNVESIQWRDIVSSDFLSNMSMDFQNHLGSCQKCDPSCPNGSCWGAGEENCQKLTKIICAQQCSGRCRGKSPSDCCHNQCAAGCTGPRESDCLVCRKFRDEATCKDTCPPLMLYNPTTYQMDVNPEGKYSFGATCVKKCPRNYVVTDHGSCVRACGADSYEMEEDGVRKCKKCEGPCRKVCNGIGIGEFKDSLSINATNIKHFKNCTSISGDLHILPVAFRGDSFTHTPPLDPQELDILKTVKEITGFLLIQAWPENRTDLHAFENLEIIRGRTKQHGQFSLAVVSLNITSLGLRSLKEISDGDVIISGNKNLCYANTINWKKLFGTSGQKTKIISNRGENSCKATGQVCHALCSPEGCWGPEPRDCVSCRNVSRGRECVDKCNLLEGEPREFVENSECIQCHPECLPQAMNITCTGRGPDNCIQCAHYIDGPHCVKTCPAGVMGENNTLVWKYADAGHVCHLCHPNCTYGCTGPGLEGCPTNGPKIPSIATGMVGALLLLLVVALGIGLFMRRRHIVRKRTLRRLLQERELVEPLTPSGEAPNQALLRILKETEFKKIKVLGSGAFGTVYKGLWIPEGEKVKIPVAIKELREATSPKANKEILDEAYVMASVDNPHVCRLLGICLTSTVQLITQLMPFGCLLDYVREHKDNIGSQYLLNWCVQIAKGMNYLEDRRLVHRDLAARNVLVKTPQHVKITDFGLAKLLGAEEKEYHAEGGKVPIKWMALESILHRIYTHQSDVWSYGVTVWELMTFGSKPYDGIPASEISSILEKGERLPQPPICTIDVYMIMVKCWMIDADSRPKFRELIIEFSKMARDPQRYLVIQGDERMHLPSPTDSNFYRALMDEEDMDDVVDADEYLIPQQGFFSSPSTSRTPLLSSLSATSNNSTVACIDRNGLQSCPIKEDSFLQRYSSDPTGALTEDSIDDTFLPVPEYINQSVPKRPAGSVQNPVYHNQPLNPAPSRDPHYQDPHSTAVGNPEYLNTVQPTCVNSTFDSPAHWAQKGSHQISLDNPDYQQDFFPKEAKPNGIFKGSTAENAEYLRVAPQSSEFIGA

[1] = test system: EGF receptor-mediated cell proliferation; assay: Combination studies (median effect analysis: IC50, CI, DRI) in cell proliferation assay (MTT assay); conditions: for CI @ ED90: Combination Index at 90% inhibition; for DRI @ ED97: Dose Reduction Index
Description: Studies were initiated to evaluate the ability of various compounds disclosed herein to synergize with several compounds known to inhibit the function of the EGF receptor in a cell proliferation assay (MTT assay).

Cc1ccc2c(C)nc(Nc3nc(-c4ccccc4C)cc(=O)[nH]3)nc2c1 [AD4-11511]
shift in Tykerb's dose-response curve (EGFR): leftward shift (i.e., greater potency) | CI @ ED90 ([1]; combination with Iressa): 0.93 | CI @ ED90 ([1]; combination with Tykerb): 0.87 | DRI @ ED97 ([1]; effect of the test compound on Iressa): 96 | DRI @ ED97 ([1]; effect of the test compound on Tykerb): 84 | DRI (effect of the test compound on Tykerb / Iressa) ([1]; result in words): very high DRI values; also recorded: fairly high DRI
